Data set [1] deals with T1, Melanin-concentrating hormone receptor 1 (Homo sapiens, UniProt Q99705). As to the kind of experiment: Displacement of [3H]4-(benzyloxy)-1-(1-(2-(pyrrolidin-1-yl)ethyl)-1H-indazol-5-yl)pyridin-2(1H)-one from MCH-1 receptor expressed in CHO-K1 cells. Format: cell-based. On the technique in general: Loss of bound radioactivity is the signal in a displacement assay; it reports binding, not function.

The target in data set [2] is Voltage-gated inwardly rectifying potassium channel KCNH2 (Homo sapiens, UniProt Q12809). The data set can be described thus: Inhibition of human ERG expressed in HEK cells by mini-patch clamp assay.
The target in a further data set is Cytochrome P450 3A4 (Homo sapiens, UniProt P08684). As to the kind of experiment: Inhibition of CYP3A4. Type of data set: ADME.
A short description of data set [3]: Half life in mouse liver microsomes. Type of data set: ADME, Microsome. In general terms: Liver microsomes are a subcellular fraction often used to study metabolism.
Data set [4] can be described thus: Half life in human liver microsomes. Format: ADME, Microsome.
Data set [5] can be described thus: Aqueous solubility in PBS at pH 7.4. Type of data set: physicochemical.
Data set [6] deals with Mus musculus. The data set can be described thus: Antiobesity activity in diet-induced obese C57BL/6J mouse model assessed as reduction of body weight at 30 mg/kg, po bid for 5 days. Type of data set: functional. Set-up: scale not given: the % may be the effect or the level left.
The target of a further data set is T2, Cytochrome P450 1A2 (Homo sapiens, UniProt P05177).
T2 sequence (P05177 whole entry): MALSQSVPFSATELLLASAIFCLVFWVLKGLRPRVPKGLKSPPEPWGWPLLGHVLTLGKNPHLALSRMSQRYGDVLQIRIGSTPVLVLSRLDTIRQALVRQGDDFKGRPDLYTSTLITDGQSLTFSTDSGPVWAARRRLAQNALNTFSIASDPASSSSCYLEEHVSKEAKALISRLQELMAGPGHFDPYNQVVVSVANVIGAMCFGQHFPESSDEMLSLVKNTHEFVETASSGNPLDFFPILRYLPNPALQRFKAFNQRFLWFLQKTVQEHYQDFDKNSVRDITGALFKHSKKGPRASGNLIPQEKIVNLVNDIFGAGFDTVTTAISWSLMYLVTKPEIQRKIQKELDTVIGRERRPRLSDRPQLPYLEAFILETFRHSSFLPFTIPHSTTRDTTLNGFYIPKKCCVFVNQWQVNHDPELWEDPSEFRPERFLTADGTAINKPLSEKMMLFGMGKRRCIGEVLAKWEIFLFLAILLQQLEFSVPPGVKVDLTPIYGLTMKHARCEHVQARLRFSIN
As to the kind of experiment: Inhibition of CYP1A2. Type of data set: ADME.

In a further data set the target is T3, Cytochrome P450 2B6 (Homo sapiens, UniProt P20813).
T3 sequence (P20813 whole entry): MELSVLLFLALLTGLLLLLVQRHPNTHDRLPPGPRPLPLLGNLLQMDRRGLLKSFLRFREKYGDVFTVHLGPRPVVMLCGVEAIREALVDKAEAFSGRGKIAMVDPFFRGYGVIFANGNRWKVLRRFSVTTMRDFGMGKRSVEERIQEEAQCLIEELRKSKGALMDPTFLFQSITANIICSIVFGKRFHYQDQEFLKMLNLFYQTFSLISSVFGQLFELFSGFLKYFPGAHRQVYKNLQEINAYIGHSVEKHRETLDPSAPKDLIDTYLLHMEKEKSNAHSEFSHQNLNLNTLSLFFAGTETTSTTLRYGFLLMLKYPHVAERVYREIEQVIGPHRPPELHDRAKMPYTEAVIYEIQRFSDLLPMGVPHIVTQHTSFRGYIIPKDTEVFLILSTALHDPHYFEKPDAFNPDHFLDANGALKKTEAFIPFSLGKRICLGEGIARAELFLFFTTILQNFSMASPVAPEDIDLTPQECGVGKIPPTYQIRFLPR
The data set can be described thus: Inhibition of CYP2B6. Type of data set: ADME.

A further data set concerns the target Cytochrome P450 2C19 (Homo sapiens, UniProt P33261). As to the kind of experiment: Inhibition of CYP2C19. Type of data set: ADME.
Another data set has as its target Cytochrome P450 2D6 (Homo sapiens, UniProt P10635). The data set can be described thus: Inhibition of CYP2D6. Type of data set: ADME.
Another data set addresses Cytochrome P450 2C9 (Homo sapiens, UniProt P11712).
Data set [7] deals with T1, Melanin-concentrating hormone receptor 1. The data set can be described thus: Antagonistic activity at MCH-1 receptor expressed in CHO-K1 cell assessed as inhibition of MCH-induced calcium release. Type of data set: functional, cell-based.
Data set [8] can be described thus: Plasma concentration in mouse at 10 mg/kg after 6 hrs. Format: ADME, organism-based. Further details: dose 10 mg/kg.
Data set [9] in a line: Drug level in mouse brain at 10 mg/kg after 6 hrs. Further details: dose 10 mg/kg. The following applies: read-out: Drug uptake. Format: ADME, organism-based.
A short description of data set [10]: Ratio of drug level in brain to plasma in mouse at 10 mg/kg after 6 hrs. Set-up: dose 10 mg/kg. Type of data set: ADME, organism-based. Particulars: read-out: BPR.
The subject of data set [11] is Mus musculus. As to the kind of experiment: Antiobesity activity in diet-induced obese C57BL/6J mouse model assessed as reduction of body weight at 30 mg/kg, po qd for 5 days. Format: functional. Set-up: scale not given: the % may be the effect or the level left.
Data set [12] can be described thus: Plasma concentration in mouse at 30 mg/kg after 6 hrs. Format: ADME, organism-based. Set-up: dose 30 mg/kg.
The nature of data set [13]: Drug level in mouse brain at 30 mg/kg after 6 hrs. Type of data set: ADME, organism-based. Set-up: dose 30 mg/kg. Particulars: read-out: Drug uptake.
A short description of data set [14]: Ratio of drug level in brain to plasma in mouse at 30 mg/kg after 6 hrs. Format: ADME, organism-based. Set-up: dose 30 mg/kg. Particulars: read-out: BPR.

26 molecules from ChEMBL document CHEMBL1287684, “5-(pyridinon-1-yl)indazoles and 5-(furopyridinon-5-yl)indazoles as MCH-1 antagonists” (Bioorg Med Chem Lett, 2010) can be followed below.

As usually defined, the pKi is the Ki on a negative log10 scale, so that one unit is a factor of ten. Usually pIC50 stands for the negative decadic logarithm of the IC50, by convention in mol/L. One may read the half-life as the time in which the quantity being followed falls by half. Broadly, the solubility is the dissolved amount per volume that the medium holds.

The structures appear in SMILES notation. pIC50, pKi: −log10 of the molar value. Values after ≈ are worked out from the molar mass of the structure shown. A value given as a limit tells only on which side of the number the result lay.

Sequence of Cytochrome P450 3A4 (P08684 whole entry): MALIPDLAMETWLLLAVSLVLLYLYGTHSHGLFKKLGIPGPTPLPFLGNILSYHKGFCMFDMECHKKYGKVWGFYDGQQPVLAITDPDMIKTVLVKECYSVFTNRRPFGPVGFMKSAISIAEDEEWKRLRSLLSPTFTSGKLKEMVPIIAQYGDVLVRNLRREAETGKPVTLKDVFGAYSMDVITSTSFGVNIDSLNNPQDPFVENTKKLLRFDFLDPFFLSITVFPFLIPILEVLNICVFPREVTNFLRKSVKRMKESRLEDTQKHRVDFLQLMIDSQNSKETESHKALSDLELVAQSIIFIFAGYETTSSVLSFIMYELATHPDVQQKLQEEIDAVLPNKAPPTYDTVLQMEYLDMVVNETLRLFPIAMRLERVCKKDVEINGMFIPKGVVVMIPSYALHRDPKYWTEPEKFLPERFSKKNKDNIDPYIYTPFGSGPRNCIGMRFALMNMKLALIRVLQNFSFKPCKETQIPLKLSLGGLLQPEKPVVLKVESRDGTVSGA
T1 sequence (Q99705 whole entry): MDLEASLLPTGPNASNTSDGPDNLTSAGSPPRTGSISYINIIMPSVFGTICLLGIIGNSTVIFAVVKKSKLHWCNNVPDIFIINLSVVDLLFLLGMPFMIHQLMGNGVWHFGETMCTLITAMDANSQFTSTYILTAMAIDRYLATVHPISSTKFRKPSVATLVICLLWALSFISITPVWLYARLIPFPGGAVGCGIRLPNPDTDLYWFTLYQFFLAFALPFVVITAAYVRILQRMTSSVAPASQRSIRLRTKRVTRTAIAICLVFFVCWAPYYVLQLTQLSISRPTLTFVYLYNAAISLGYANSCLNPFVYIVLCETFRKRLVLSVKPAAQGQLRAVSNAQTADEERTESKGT
Sequence of Voltage-gated inwardly rectifying potassium channel KCNH2 (Q12809 whole entry): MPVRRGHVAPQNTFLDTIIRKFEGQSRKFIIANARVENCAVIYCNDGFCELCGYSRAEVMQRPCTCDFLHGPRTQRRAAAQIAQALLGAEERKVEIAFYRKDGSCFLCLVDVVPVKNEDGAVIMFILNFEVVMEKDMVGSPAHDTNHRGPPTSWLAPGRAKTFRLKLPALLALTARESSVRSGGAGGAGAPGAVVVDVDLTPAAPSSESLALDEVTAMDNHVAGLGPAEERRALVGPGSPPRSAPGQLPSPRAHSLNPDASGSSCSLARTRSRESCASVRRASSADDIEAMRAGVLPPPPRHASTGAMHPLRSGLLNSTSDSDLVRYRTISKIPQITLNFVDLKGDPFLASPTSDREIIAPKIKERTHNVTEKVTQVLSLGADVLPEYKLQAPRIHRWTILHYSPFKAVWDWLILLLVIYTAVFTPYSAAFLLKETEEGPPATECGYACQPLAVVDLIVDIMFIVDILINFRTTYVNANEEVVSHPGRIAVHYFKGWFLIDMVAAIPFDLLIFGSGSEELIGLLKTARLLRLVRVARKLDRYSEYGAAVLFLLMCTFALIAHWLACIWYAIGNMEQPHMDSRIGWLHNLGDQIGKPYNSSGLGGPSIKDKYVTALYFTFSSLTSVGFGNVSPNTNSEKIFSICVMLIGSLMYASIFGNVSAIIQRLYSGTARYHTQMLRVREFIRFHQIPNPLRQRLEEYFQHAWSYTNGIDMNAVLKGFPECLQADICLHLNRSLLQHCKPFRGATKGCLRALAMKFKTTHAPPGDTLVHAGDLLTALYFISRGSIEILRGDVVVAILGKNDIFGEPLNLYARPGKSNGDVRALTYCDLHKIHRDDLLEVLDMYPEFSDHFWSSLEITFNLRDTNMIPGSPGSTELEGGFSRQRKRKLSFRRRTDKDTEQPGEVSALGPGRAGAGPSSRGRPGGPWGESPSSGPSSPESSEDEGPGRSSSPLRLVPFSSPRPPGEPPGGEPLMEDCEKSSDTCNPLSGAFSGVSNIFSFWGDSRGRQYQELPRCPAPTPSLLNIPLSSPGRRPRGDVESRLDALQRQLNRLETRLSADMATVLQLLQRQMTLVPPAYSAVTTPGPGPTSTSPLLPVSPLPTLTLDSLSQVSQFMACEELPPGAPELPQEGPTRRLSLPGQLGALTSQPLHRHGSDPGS
Sequence of Cytochrome P450 2D6 (P10635 whole entry): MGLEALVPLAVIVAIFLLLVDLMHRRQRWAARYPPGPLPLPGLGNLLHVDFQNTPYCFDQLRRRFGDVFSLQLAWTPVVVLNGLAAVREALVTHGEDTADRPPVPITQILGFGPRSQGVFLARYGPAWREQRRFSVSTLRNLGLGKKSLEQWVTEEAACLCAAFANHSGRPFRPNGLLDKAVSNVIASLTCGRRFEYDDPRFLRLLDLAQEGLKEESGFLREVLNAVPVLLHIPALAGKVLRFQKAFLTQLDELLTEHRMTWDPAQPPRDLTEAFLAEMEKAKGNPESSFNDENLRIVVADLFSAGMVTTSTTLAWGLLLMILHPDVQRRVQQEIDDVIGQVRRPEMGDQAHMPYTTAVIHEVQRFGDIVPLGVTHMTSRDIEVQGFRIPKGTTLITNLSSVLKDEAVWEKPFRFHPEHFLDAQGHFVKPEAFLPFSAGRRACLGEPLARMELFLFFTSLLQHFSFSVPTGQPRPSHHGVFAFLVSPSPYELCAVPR
Sequence of Cytochrome P450 2C9 (P11712 whole entry): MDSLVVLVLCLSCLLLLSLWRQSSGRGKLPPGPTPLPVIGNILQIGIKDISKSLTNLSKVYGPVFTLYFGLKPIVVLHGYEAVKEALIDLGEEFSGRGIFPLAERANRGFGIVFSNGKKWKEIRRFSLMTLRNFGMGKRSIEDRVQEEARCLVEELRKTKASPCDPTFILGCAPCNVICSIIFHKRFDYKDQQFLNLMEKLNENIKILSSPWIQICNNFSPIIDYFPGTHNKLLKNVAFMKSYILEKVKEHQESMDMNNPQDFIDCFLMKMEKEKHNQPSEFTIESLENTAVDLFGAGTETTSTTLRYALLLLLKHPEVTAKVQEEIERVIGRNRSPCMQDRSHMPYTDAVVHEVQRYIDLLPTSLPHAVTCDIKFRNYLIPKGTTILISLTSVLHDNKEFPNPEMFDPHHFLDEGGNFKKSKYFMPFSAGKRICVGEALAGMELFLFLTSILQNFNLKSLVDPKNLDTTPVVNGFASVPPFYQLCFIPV
Sequence of Cytochrome P450 2C19 (P33261 whole entry): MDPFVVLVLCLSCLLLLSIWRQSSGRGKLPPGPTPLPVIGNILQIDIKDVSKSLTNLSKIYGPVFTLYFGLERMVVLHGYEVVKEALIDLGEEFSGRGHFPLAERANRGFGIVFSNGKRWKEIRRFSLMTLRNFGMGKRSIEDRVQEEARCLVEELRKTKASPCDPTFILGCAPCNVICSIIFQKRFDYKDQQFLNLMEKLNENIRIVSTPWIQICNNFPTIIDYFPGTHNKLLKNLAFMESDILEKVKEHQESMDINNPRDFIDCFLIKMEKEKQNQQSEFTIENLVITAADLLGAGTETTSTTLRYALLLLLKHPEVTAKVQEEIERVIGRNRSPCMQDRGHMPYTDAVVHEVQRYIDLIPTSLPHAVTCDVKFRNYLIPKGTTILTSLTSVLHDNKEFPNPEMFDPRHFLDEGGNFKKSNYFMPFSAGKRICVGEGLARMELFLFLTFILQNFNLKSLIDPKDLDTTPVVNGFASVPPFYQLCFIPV

In turn, `CN(C)CCn1ncc2cc(-n3ccc(OCc4ccccc4)cc3=O)ccc21` showed a negative-log Ki (pKi) in data set [1] of 8.33. In [2], the pIC50 is 5.74.

The molecule `O=c1cc(OCc2ccccc2)ccn1-c1ccc2c(cnn2CC2=NCCN2)c1` showed a pKi in [1] of 7.65. In addition, the pIC50 in data set [2] was 5.07; against Cytochrome P450 3A4, 4.42. The values for the half-life in data set [3] and in data set [4] were 9.67 h and 4.33 h, respectively. In [5], the solubility amounted to 410 µM (≈ 164 µg/mL). Besides, the Activity in the data set on Mus musculus [6] came out at 3.5%.

`O=c1cc(OCc2ccccc2)ccn1-c1ccc2c(cnn2CCN2CC3CC2CO3)c1` (stereo not given) had a pKi in data set [1] of 7.76. The molecule further showed a pIC50 in [2] of 4.80.

In data set [1], `CN(C)CCCn1ncc2cc(-n3ccc(OCc4ccccc4)cc3=O)ccc21` showed a pKi of 7.90. The same molecule gave a pIC50 in [2] of 5.85.

With `O=c1c2cc(-c3ccc(F)cc3)oc2ccn1-c1ccc2c(cnn2CCN2CCCC2)c1`, the pKi in data set [1] was 8.21.

As to `O=c1cc(OCc2ccccc2)ccn1-c1ccc2c(cnn2C[C@@H]2CCCN2)c1`, in data set [1], the pKi is 7.92. In [2], this molecule gave a pIC50 of 5.70.

`O=c1cc(OCc2ccccc2)ccn1-c1ccc2c(cnn2CCN2CCOCC2)c1` had a pKi in data set [1] of 7.36. In [2], this molecule gave a pIC50 of less than 4.52.

In the case of `O=c1c2cc(-c3ccccc3)oc2ccn1-c1ccc2c(cnn2CCN2CCCC2)c1`, the pKi in [1] was 8.01.

The molecule `COC[C@H]1CCCN1CCn1ncc2cc(-n3ccc(OCc4ccccc4)cc3=O)ccc21` showed a pKi in [1] of 7.95. In data set [2], the pIC50 is 6.10.

On to `CCCCn1ncc2cc(-n3ccc(OCc4ccccc4)cc3=O)ccc21`, for which the pKi in data set [1] is less than 5.30.

`O=c1cc(OCc2ccccc2)ccn1-c1ccc2c(cnn2CC2C[C@@H](O)CN2)c1` (stereo not given in full) showed a pKi in data set [1] of 7.48. Also, the pIC50 in [2] was less than 4.52.

`O=c1c2cc(-c3cccc(Cl)c3)oc2ccn1-c1ccc2c(cnn2CCN2CCCC2)c1` had a pKi in [1] of 7.42.

For `O=c1c2cc(-c3ccc(Cl)cc3F)oc2ccn1-c1ccc2c(cnn2CCN2CCCC2)c1`, the pKi in [1] is 8.38.

`COc1cc(Cl)ccc1-c1cc2c(=O)n(-c3ccc4c(cnn4CCN4CCCC4)c3)ccc2o1`: in data set [1], the pKi is 7.32.

With `O=c1c2cc(-c3ccc(Cl)cc3Cl)oc2ccn1-c1ccc2c(cnn2CCN2CCCC2)c1`, in [1], the pKi is 7.85.

Molecule `O=c1cc(OCc2ccccc2)ccn1-c1ccc2c(cnn2CCN2CC[C@H](O)C2)c1` had a pKi in data set [1] of 8.33. Moreover, the pIC50 is 5.05 in data set [2]; 5.11 at Cytochrome P450 3A4; less than 5.00 at Cytochrome P450 1A2; less than 5.00 on Cytochrome P450 2B6; less than 5.00 at Cytochrome P450 2C19; less than 5.00 on Cytochrome P450 2D6. At Cytochrome P450 2C9, this molecule gave a pIC50 of less than 5.00. Further, the results for the half-life in data set [3] and in data set [4] were 7.22 h and 4.82 h, respectively. Further, the solubility in data set [5] is more than 500 µM. In addition, the Activity with Mus musculus [6] was 3.3%.

On to `O=c1cc(OCc2ccccc2)ccn1-c1ccc2c(cnn2CCN2CCC[C@@H]2CO)c1`, for which, in [1], the pKi is 8.51. Moreover, the pIC50 in [2] is 5.64.

In data set [1], `O=c1c2cc(-c3ccccc3Cl)oc2ccn1-c1ccc2c(cnn2CCN2CCCC2)c1` gave a pKi of 7.55.

In turn, `O=c1cc(OCc2ccccc2)ccn1-c1ccc2c(cnn2CCN2CCNCC2)c1` had a pKi in [1] of 7.61.

`O=c1c2cc(-c3ncccn3)oc2ccn1-c1ccc2c(cnn2CCN2CCCC2)c1`: the pKi in [1] was 5.77.

In the case of `CN(C)CC(O)Cn1ncc2cc(-n3ccc(OCc4ccccc4)cc3=O)ccc21` (stereo not given), in data set [1], the pKi is 7.42. The pIC50 in data set [2] was 4.92.

`O=c1c2cc(-c3ccc(Cl)cc3)oc2ccn1-c1ccc2c(cnn2CCN2CCCC2)c1` showed a pKi in [1] of 8.28. Besides, in data set [7], the pIC50 was 7.64. Besides, the figures for the concentration at 6 h in data set [8] and in data set [9] were 141 ng/mL and 2250 ng/g, respectively. Also, the Kp at 6 h in [10] worked out at 16. For the same molecule, the Activity in the data set with Mus musculus [11] stood at 4.5%.

With `CO[C@H]1CCN(CCn2ncc3cc(-n4ccc(OCc5ccccc5)cc4=O)ccc32)C1`, in data set [1], the pKi was 8.03.

The molecule `CN1CCN=C1Cn1ncc2cc(-n3ccc(OCc4ccccc4)cc3=O)ccc21` gave a pKi in data set [1] of 7.52.

In [1], `O=c1c2cc(-c3ccccn3)oc2ccn1-c1ccc2c(cnn2CCN2CCCC2)c1` showed a negative-log Ki (pKi) of 7.23.

Consider `O=c1cc(OCc2ccccc2)ccn1-c1ccc2c(cnn2CCN2CCCC2)c1`, for which the pIC50 at Cytochrome P450 3A4 was 5.00; against Cytochrome P450 1A2, less than 5.00; in [7], 7.85. In addition, the half-life in data set [3] turned out to be 11.6 h; in [4], 5.05 h. This molecule returned a solubility in data set [5] of 492 µM (≈ 204 µg/mL). For the same molecule, the concentration at 6 h stood at 2220 ng/mL in [12] and 1480 ng/g in [13]. Further, the Kp at 6 h in data set [14] stood at 0.7.
